This passage reports Cells killed results from US9605285B2, “Compositions and methods for succinate production” (CARGILL, INCORPORATED, priority 2011, dated 2017).

The test system of this assay is yeast cells. As to the kind of experiment: EMS mutagenesis of yeast cells. It counts as cell-based. The settings on record: 3 μL EMS per 200 μL cell suspension, approximately one hour. The procedure: For example, yeast cells from a fresh YP (yeast extract/peptone)+20 g/L glucose plate or liquid culture (OD600 1-4) are resuspended in sterile water to an OD600 of around 10. 200 μL aliquots of this cell suspension are pipetted into individual tubes and exposed to 3 μL […] (EMS) for approximately one hour, which kills around 65% of the cells. Higher EMS concentrations can also be used to increase the kill rate. After exposure, cells are neutralized with 5% sodium thiosulfate, washed in PBS buffer, recovered in rich media for approximately four hours, and cultured on selective media. Mock samples (no EMS) are also run to ensure that the conditions are selective. Alternatively, cell can be mutagenized using UV irradiation.

As to `CCOS(C)(=O)=O` [EMS, ethane methyl sulfonate], the Cells killed entry is reported as “around 65%”.
